Measurements from patent US20250346592A1 (Celgene Corporation, priority 2022, published 2025).

How the values were obtained:
hPAD4 enzyme [1] = target: T1, hPAD4 enzyme (Homo sapiens (Human), UniProt Q9UM07); assay: RFMS2 assay (RapidFire mass spectrometry, TSTGGRQGSHH peptide substrate); format: biochemical; conditions: 35 nM recombinant human PAD4, 500 μM TSTGGRQGSHH peptide, 30 minutes at room temperature; read-out: RFMS 2 IC50
Outline: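 IC50 derived from RapidFire LC-MS/MS (positive ESI MRM) of substrate versus product after a 30 min room-temperature reaction stopped with 10% formic acid. Reaction contained 35 nM human PAD4, 500 μM peptide, 2 mM CaCl2, 5 mM DTT at pH 7.4, and compounds diluted 3-fold from 20 μM.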

hPAD4 enzyme [2] = target: T1, hPAD4 enzyme; assay: RFMS1 assay (RapidFire mass spectrometry, BAEE substrate); format: biochemical; conditions: 5 nM hPAD4, 250 μM BAEE, 30 min preincubation at 37° C., 90 min reaction; read-out: RFMS 1 IC50
Outline: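 hPAD4 (5 nM) preincubated 30 min at 37° C. with compound, then 250 μM BAEE for 90 min at 37° C. in pH 7.5 HEPES buffer with 50 μM calcium, 1 mM DTT, 5 μM TPEN. TCA quench, phenyl glyoxal derivatisation; citrulline product measured by RapidFire MS, normalised to internal standard; IC50 values.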

T1 sequence (Q9UM07 whole entry): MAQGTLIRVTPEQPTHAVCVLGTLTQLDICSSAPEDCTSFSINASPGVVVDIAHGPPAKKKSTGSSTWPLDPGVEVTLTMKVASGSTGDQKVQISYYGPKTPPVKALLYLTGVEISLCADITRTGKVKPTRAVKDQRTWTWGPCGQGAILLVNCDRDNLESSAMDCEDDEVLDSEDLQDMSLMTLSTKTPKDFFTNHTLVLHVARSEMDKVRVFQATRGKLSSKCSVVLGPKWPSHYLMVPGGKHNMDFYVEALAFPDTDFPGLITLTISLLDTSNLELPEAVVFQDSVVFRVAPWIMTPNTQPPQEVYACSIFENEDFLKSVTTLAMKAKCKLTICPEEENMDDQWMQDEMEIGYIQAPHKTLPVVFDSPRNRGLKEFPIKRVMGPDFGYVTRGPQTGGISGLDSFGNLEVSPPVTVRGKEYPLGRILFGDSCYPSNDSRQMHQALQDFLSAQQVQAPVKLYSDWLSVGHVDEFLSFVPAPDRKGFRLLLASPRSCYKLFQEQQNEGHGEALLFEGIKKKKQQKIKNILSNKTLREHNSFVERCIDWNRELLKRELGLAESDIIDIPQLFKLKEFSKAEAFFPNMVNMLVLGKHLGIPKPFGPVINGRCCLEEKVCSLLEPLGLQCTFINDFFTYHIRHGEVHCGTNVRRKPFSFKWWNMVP

SMILES	IC50 (hPAD4 enzyme [1])	IC50 (hPAD4 enzyme [2])
Cn1c(-c2cc3cccc(OC[C@@H]4CNC(=O)O4)c3n2CC2CC2)nc2cc3c(cc21)CCN(C[C@H](N)CF)C3=O [Example 206, (S)-5-(((2-(6-((S)-2-amino-3-fluoropropyl)-1-methyl-5-oxo-5,6,7,8-tetrahydro-1H-imidazo[4,5-g]isoquinolin-2-yl)-1-(cyclopropylmethyl)-1H-indol-7-yl)oxy)methyl)oxazolidin-2-one]	11 to 100 nM	≤ 10 nM
COC(=O)NCCOc1cccc2cc(-c3nc4cc5c(cc4n3C)CCN(C[C@H](N)CF)C5=O)n(CC3CC3)c12 [Example 207, methyl (S)-(2-((2-(6-(2-amino-3-fluoropropyl)-1-methyl-5-oxo-5,6,7,8-tetrahydro-1H-imidazo[4,5-g]isoquinolin-2-yl)-1-(cyclopropylmethyl)-1H-indol-7-yl)oxy)ethyl)carbamate]	101 to 500 nM	11 to 100 nM
COC(=O)N[C@@H](C)COc1cccc2cc(-c3nc4cc5c(cc4n3C)CCN(C[C@H](N)CF)C5=O)n(CC3CC3)c12 [Example 208, methyl ((S)-1-((2-(6-((S)-2-amino-3-fluoropropyl)-1-methyl-5-oxo-5,6,7,8-tetrahydro-1H-imidazo[4,5-g]isoquinolin-2-yl)-1-(cyclopropylmethyl)-1H-indol-7-yl)oxy)propan-2-yl)carbamate]	101 to 500 nM	11 to 100 nM
Cn1c(-c2cc3cccc(OCCn4cnnc4)c3n2CC2CC2)nc2cc3c(cc21)CCN(C[C@H](N)CF)C3=O [Example 210, (S)-2-(7-(2-(4H-1,2,4-triazol-4-yl)ethoxy)-1-(cyclopropyl-methyl)-1H-indol-2-yl)-6-(2-amino-3-fluoropropyl)-1-methyl-1,6,7,8-tetrahydro-5H-imidazo[4,5-g]isoquinolin-5-one]	11 to 100 nM	11 to 100 nM
C[C@@H](COc1cccc2cc(-c3nc4cc5c(cc4n3C)CCN(C[C@H](N)CF)C5=O)n(CC3CC3)c12)n1ccnc1 [Example 212, 2-(7-((S)-2-(1H-imidazol-1-yl)propoxy)-1-(cyclopropylmethyl)-1H-indol-2-yl)-6-((S)-2-amino-3-fluoropropyl)-1-methyl-1,6,7,8-tetrahydro-5H-imidazo[4,5-g]isoquinolin-5-one]	11 to 100 nM	≤ 10 nM
C[C@H](COc1cccc2cc(-c3nc4cc5c(cc4n3C)CCN(C[C@H](N)CF)C5=O)n(CC3CC3)c12)n1ccnc1 [Example 213, 2-(7-((R)-2-(1H-imidazol-1-yl)propoxy)-1-(cyclopropylmethyl)-1H-indol-2-yl)-6-((S)-2-amino-3-fluoropropyl)-1-methyl-1,6,7,8-tetrahydro-5H-imidazo[4,5-g]isoquinolin-5-one]	101 to 500 nM	≤ 10 nM
C[C@@H](Cn1ccnc1)Oc1cccc2cc(-c3nc4cc5c(cc4n3C)CCN(C[C@H](N)CF)C5=O)n(CC3CC3)c12 [Example 222, 2-(7-(((S)-1-(1H-imidazol-1-yl)propan-2-yl)oxy)-1-(cyclopropylmethyl)-1H-indol-2-yl)-6-((S)-2-amino-3-fluoropropyl)-1-methyl-1,6,7,8-tetrahydro-5H-imidazo[4,5-g]isoquinolin-5-one]	101 to 500 nM	11 to 100 nM
C[C@H](Cn1ccnc1)Oc1cccc2cc(-c3nc4cc5c(cc4n3C)CCN(C[C@H](N)CF)C5=O)n(CC3CC3)c12 [Example 223, 2-(7-(((R)-1-(1H-imidazol-1-yl)propan-2-yl)oxy)-1-(cyclopropylmethyl)-1H-indol-2-yl)-6-((S)-2-amino-3-fluoropropyl)-1-methyl-1,6,7,8-tetrahydro-5H-imidazo[4,5-g]isoquinolin-5-one]	101 to 500 nM	≤ 10 nM
Cn1c(-c2cc3cccc(/C=C/Cn4ccnc4)c3n2CC2CC2)nc2cc3c(cc21)CCN(C[C@H](N)CF)C3=O [Example 227, (S,E)-2-(7-(3-(1H-imidazol-1-yl)prop-1-en-1-yl)-1-(cyclopropylmethyl)-1H-indol-2-yl)-6-(2-amino-3-fluoropropyl)-1-methyl-1,6,7,8-tetrahydro-5H-imidazo[4,5-g]isoquinolin-5-one]	11 to 100 nM	≤ 10 nM
Cn1c(-c2cc3cccc(CCCn4ccnc4)c3n2CC2CC2)nc2cc3c(cc21)CCN(C[C@H](N)CF)C3=O [Example 228, (S)-2-(7-(3-(1H-imidazol-1-yl)propyl)-1-(cyclopropylmethyl)-1H-indol-2-yl)-6-(2-amino-3-fluoropropyl)-1-methyl-1,6,7,8-tetrahydro-5H-imidazo[4,5-g]isoquinolin-5-one]	101 to 500 nM	≤ 10 nM
CN[C@H](C)CN1CCc2cc3c(cc2C1=O)nc(-c1cc2cccc(OCC4CNC(=O)C4)c2n1CC1CC1)n3C (stereo partly drawn) [Example 229, 2-(1-(cyclopropylmethyl)-7-((5-oxopyrrolidin-3-yl)methoxy)-1H-indol-2-yl)-1-methyl-6-((R)-2-(methylamino)propyl)-1,6,7,8-tetrahydro-5H-imidazo[4,5-g]isoquinolin-5-one]	101 to 500 nM	501 to 1000 nM
COc1cccc2cc(-c3nc4cc5c(cc4n3C)CCN(C[C@H]3COCCN3)C5=O)n(CC3CC3)c12 [Example 231, (S)-2-(1-(cyclopropylmethyl)-7-methoxy-1H-indol-2-yl)-1-methyl-6-(morpholin-3-ylmethyl)-1,6,7,8-tetrahydro-5H-imidazo[4,5-g]isoquinolin-5-one]	501 to 1000 nM	101 to 500 nM
COc1cccc2cc(-c3nc4cc5c(cc4n3C)CCN(C[C@H]3COCCN3)C5=O)n(Cc3ncco3)c12 [Example 232, (S)-2-(7-methoxy-1-(oxazol-2-ylmethyl)-1H-indol-2-yl)-1-methyl-6-(morpholin-3-ylmethyl)-1,6,7,8-tetrahydro-5H-imidazo[4,5-g]isoquinolin-5-one]	101 to 500 nM	101 to 500 nM
Cn1c(-c2cc3cccc(OCCn4cnnc4)c3n2CC2CC2)nc2cc3c(cc21)CCN(C[C@H]1COCCN1)C3=O [Example 234, 2-[1-(cyclopropylmethyl)-7-[2-(1,2,4-triazol-4-yl)ethoxy]indol-2-yl]-1-methyl-6-[[(3S)-morpholin-3-yl]methyl]-7,8-dihydroimidazo[4,5-g]isoquinolin-5-one]	501 to 1000 nM	11 to 100 nM
Cn1c(-c2cc3ccccc3n2CC2CC2)nc2cc3c(c(F)c21)CCN(C[C@H](N)CF)C3=O [Example 236, (S)-6-(2-amino-3-fluoropropyl)-2-(1-(cyclopropylmethyl)-1H-indol-2-yl)-9-fluoro-1-methyl-1,6,7,8-tetrahydro-5H-imidazo[4,5-g]isoquinolin-5-one]	501 to 1000 nM	101 to 500 nM
C[C@@H](N)CN1CCc2c(cc3nc(-c4cc5ccccc5n4CC4CC4)n(C)c3c2F)C1=O [Example 237, (R)-6-(2-aminopropyl)-2-(1-(cyclopropylmethyl)-1H-indol-2-yl)-9-fluoro-1-methyl-1,6,7,8-tetrahydro-5H-imidazo[4,5-g]isoquinolin-5-one]	101 to 500 nM	101 to 500 nM
COc1cccc2cc(-c3nc4cc5c(c(F)c4n3C)CCN(C[C@H](N)CF)C5=O)n(CC3CC3)c12 [Example 238, (S)-6-(2-amino-3-fluoropropyl)-2-(1-(cyclopropylmethyl)-7-methoxy-1H-indol-2-yl)-9-fluoro-1-methyl-1,6,7,8-tetrahydro-5H-imidazo[4,5-g]isoquinolin-5-one]	101 to 500 nM	11 to 100 nM
